Source: US12303845B2, “Method for crystallization of active pharmaceutical ingredients” (Nanoform Finland Oyj, priority 2023, dated 2025)

Assays:
[1] = Crystallization of amorphous nanosized API in aqueous polymer solution, polymorph/crystallinity by XRD; assay type: physicochemical; design: key to Polymorph: bulk = same as the API before conversion to amorphous nanoparticles
Protocol: XRPD measurements were carried out using the Malvern PANalytical Empyrean X-ray diffractometer equipped with a Cu Kα (1.54 Å) source, MultiCore optics and a solid-state PIXcel3D detector. By using Kapton tape the samples were attached onto aluminum or polycrystalline silicon sample holders. Dried slurries were measured without further sample preparation under Kapton tape and suspensions were filtered, dried, and filters were attached with double sided tape. The samples were measured in the reflection geometry in a spinning measurement stage. The measurement range was 5-40 (°2θ). The step size and time per step values were varied depending on the counts per second obtained.
Determination of crystallization of API nanoparticles was evaluated via kinetic study of suspension. Accordingly, XRD measurement was done for suspension in different time points.
Amorphous API nanoparticles (budesonide, ezetimibe, ceritinib, and apalutamide) were added as dry powders to aqueous polymer solutions. The mixtures were either • (i) mixed with a magnetic stirrer and ultrasonicated until API was completely surrounded by water (wetted). The stirring was continued for 16-24 h at ambient temperature or • (ii) blended with a metal spatula and allowed to stay at room temperature for 18-24 h.
The suspensions formed were analyzed after 18-24 h. SEM and XRD samples were prepared as described above.

[2] = SEM of crystallized suspensions and dried products (crystal size grade, particle size); assay type: physicochemical; design: key: 5 = nanocrystals; 1 = large crystals
Protocol: SEM images were captured using the Zeiss Sigma 300 VP SEM instruments. Samples were dispersed into water and filtered with 0.1 μm filter. Filters were dried, transferred to SEM sample holders, and coated with a 5 nm thick layer of platinum. Amorphous API nanoparticles (budesonide, ezetimibe, ceritinib, and apalutamide) were added as dry powders to aqueous polymer solutions. The mixtures were either • (i) mixed with a magnetic stirrer and ultrasonicated until API was completely surrounded by water (wetted). The stirring was continued for 16-24 h at ambient temperature or • (ii) blended with a metal spatula and allowed to stay at room temperature for 18-24 h. The suspensions formed were analyzed after 18-24 h. SEM and XRD samples were prepared as described above. Suspension comprising nanosized APIs prepared as shown above were dried in a vacuum desiccator overnight. The solid materials were grounded to produce powders. The powders were analyzed on XRD and SEM. The powders comprising nanosized APIs were used in the stability, permeability, and dissolution tests as described above.

[3] = Stability tests of solid material (SEM, XRD, HPLC); assay type: physicochemical; conditions: materials prepared according to the disclosure; up to T30; crystallinity confirmed by XRD
Protocol: Solid material was weighted in separate vials (approx. 150 mg of material in each) and transferred to stability chambers. Three conditions were applied: ambient conditions (material in closed vial at RT), 25° C./65% RH and 40° C./75% RH. Material was analyzed at T0 as freshly prepared, T7 ([…]), T14 ([…]) and T30 (30 d) after the initiation of stability studies. SEM, XRD and dissolution/permeability studies were used to evaluate the crystallinity, particle size/morphology and performance of the material.

[4] = Permeability measurements (μFlux); assay type: in vitro ADME; conditions: composition of the disclosure vs bulk ezetimibe, PAMPA membrane
Protocol: A μFlux instrument connected to the Rainbow instrument (Pion Inc UK Ltd, Forest Row, UK) was used to determine the passive permeability of API from different formulations. The suspensions were loaded to the donor chamber containing 10 mL of SGF (0.025 M HCl pH 1.6) and incubated for 15 min. Thereafter, the content of the donor chamber was converted to FaSSIF medium pH 6.5 by addition of 10 mL of FaSSIF concentrate media and stirring rate of 150 rpm. The receiver compartment contained 20 mL of PION acceptor buffer pH 7.4 with stirring rate of 150 rpm. The permeability was assessed across a gastrointestinal PAMPA membrane (Pion Inc UK Ltd, Forest Row, UK). The suspensions were loaded either at either 40 μg/mL for Ezetimibe or 30 μg/mL for Apalutamide using suspensions prepared at concentration of 5 mg/mL in 1 wt.-% PVPVA suspension vehicle. The temperature was set to 37° C. throughout the measurement. Incubation time was about 24 h. UV-Vis spectra were recorded at 30 s intervals at a wavelength of 293-320 nm using the Pion Rainbow Dynamic with either 10 mm tips for Ezetimibe or 5 mm tips for Apalutamide. API concentrations were calculated using second derivative to avoid interference of undissolved floating particles based on a standard curve (stock solution 5 mg/mL in ethanol). […]

[5] = HPMC 1 wt.-%, SLS 0.2 wt.-%, mAPI 25 mg/g
[6] = HPMC 1 wt.-%, no SLS, mAPI 25 mg/g
[7] = HPMC 2.5 wt.-%, SLS 0.2 wt.-%, mAPI 25 mg/g
[8] = HPMC 2.5 wt.-%, no SLS, mAPI 25 mg/g
[9] = HPMC 5 wt.-%, SLS 0.2 wt.-%, mAPI 25 mg/g
[10] = HPMC 5 wt.-%, no SLS, mAPI 25 mg/g
[11] = PVP K30 1 wt.-%, no SLS, mAPI 25 mg/g
[12] = PVP K30 2.5 wt.-%, no SLS, mAPI 25 mg/g
[13] = PVP K30 5 wt.-%, no SLS, mAPI 25 mg/g
[14] = PVPVA 1 wt.-%, SLS 0.2 wt.-%, mAPI 25 mg/g
[15] = PVPVA 1 wt.-%, no SLS, mAPI 25 mg/g polymer solution
[16] = PVPVA 2.5 wt.-%, SLS 0.2 wt.-%, mAPI 25 mg/g
[17] = PVPVA 2.5 wt.-%, no SLS, mAPI 25 mg/g
[18] = PVPVA 5 wt.-%, SLS 0.2 wt.-%, mAPI 25 mg/g
[19] = PVPVA 5 wt.-%, no SLS, mAPI 25 mg/g
[20] = PVPVA 15 wt.-%, no SLS, mAPI 150 mg/g
[21] = PVPVA 15 wt.-%, no SLS, mAPI 300 mg/g
[22] = PVPVA 20 wt.-%, no SLS, mAPI 100 mg/g
[23] = PVPVA 20 wt.-%, no SLS, mAPI 200 mg/g
[24] = PVPVA 20 wt.-%, no SLS, mAPI 400 mg/g
[25] = PVPVA 25 wt.-%, no SLS, mAPI 125 mg/g
[26] = PVPVA 25 wt.-%, no SLS, mAPI 250 mg/g
[27] = Poloxamer 407 1 wt.-%, no SLS, mAPI 25 mg/g
[28] = Poloxamer 407 2.5 wt.-%, no SLS, mAPI 25 mg/g
[29] = Poloxamer 407 5 wt.-%, no SLS, mAPI 25 mg/g

Polymorph [1, 5]: bulk | Polymorph [1, 6]: hydrate | Polymorph [1, 7]: amorphous | Polymorph [1, 8]: hydrate | Polymorph [1, 9]: amorphous | Polymorph [1, 10]: hydrate | Polymorph [1, 11]: bulk | Polymorph [1, 12]: bulk | Polymorph [1, 13]: bulk | Polymorph [1, 14]: bulk | Polymorph [1, 15]: bulk | Polymorph [1, 16]: bulk | Polymorph [1, 17]: bulk | Polymorph [1, 18]: hydrate | Polymorph [1, 19]: bulk | Polymorph [1, 20]: hydrate | Polymorph [1, 21]: hydrate | Polymorph [1, 22]: hydrate | Polymorph [1, 23]: hydrate | Polymorph [1, 24]: hydrate | Polymorph [1, 25]: hydrate | Polymorph [1, 26]: hydrate | Polymorph [1, 27]: bulk | Polymorph [1, 28]: bulk | Polymorph [1, 29]: bulk | time from contacting until crystal formation is observed in XRD diffractograms ([1]; suspension in 20 wt.-% aq. PVPVA, API:polymer ratio 1:1): > 9 h | Grade (SEM, visual inspection) [2, 5]: 2 | Grade (SEM, visual inspection) [2, 6]: 2 | Grade (SEM, visual inspection) [2, 7]: 2 | Grade (SEM, visual inspection) [2, 8]: 2 | Grade (SEM, visual inspection) [2, 9]: 2 | Grade (SEM, visual inspection) [2, 10]: 2 | Grade (SEM, visual inspection) [2, 11]: 3 | Grade (SEM, visual inspection) [2, 12]: 3 | Grade (SEM, visual inspection) [2, 13]: 3 | Grade (SEM, visual inspection) [2, 14]: 2 | Grade (SEM, visual inspection) [2, 15]: 3 | Grade (SEM, visual inspection) [2, 16]: 4 | Grade (SEM, visual inspection) [2, 17]: 2 | Grade (SEM, visual inspection) [2, 18]: 5 | Grade (SEM, visual inspection) [2, 19]: 2 | Grade (SEM, visual inspection) [2, 20]: 5 | Grade (SEM, visual inspection) [2, 21]: 5 | Grade (SEM, visual inspection) [2, 22]: 5 | Grade (SEM, visual inspection) [2, 23]: 5 | Grade (SEM, visual inspection) [2, 24]: 5 | Grade (SEM, visual inspection) [2, 25]: 5 | Grade (SEM, visual inspection) [2, 26]: 5 | Grade (SEM, visual inspection) [2, 27]: 1 | Grade (SEM, visual inspection) [2, 28]: 1 | Grade (SEM, visual inspection) [2, 29]: 1 | Stability of nanocrystalline material over the stability study [3]: stable over the whole stability study | permeability versus bulk API [4]: significantly better
Compound: O=C1[C@H](CC[C@H](O)c2ccc(F)cc2)[C@@H](c2ccc(O)cc2)N1c1ccc(F)cc1 [Eze, ezetimibe]
